According to ChEMBL document CHEMBL1201862, “PubChem BioAssay data set” (2004):
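A five-concentration, 48-hour dose response in 96-well plates underlies each endpoint, interpolated linearly between surrounding concentrations. GI50 is the concentration that inhibits growth by half.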 The source made the active and inactive calls. Cut-off read from the data, not from the text of the source: active = GI50 up to about 1.1 µM and inactive = higher.

How the values were obtained:
Experiment in all cases: NCI anticancer screen, dose series, 48 h
[1] = test system: NCI-H460
[2] = test system: NCI-H23
[3] = test system: SF-295
[4] = test system: OVCAR-8
[5] = test system: SW-620
[6] = test system: 786-0
[7] = test system: OVCAR-4
[8] = test system: SK-OV-3
[9] = test system: DU-145
[10] = test system: HOP-62
[11] = test system: SF-539
[12] = test system: UACC-257
[13] = test system: LOX IMVI
[14] = test system: CCRF-CEM
[15] = test system: NCI/ADR-RES
[16] = test system: NCI-H226
[17] = test system: TK-10
[18] = test system: A498
[19] = test system: IGROV-1
[20] = test system: RPMI-8226
[21] = test system: PC-3
[22] = test system: U-251
[23] = test system: OVCAR-3
[24] = test system: SNB-19
[25] = test system: UO-31
[26] = test system: SF-268
[27] = test system: SK-MEL-28
[28] = test system: ACHN
[29] = test system: MDA-MB-231
[30] = test system: NCI-H522
[31] = test system: KM12
[32] = test system: MDA-N
[33] = test system: HL-60
[34] = test system: T47D
[35] = test system: SR
[36] = test system: A549
[37] = test system: HCT-15
[38] = test system: K562
[39] = test system: Hs-578T
[40] = test system: HCT-116
[41] = test system: UACC-62
[42] = test system: RXF 393
[43] = test system: Malme-3M
[44] = test system: COLO 205
[45] = test system: MCF7
[46] = test system: BT-549
[47] = test system: HOP-92
[48] = test system: SK-MEL-2
[49] = test system: SN12C
[50] = test system: SNB-75
[51] = test system: MOLT-4
[52] = test system: EKVX
[53] = test system: M14
[54] = test system: MDA-MB-435
[55] = test system: CAKI-1
[56] = test system: HT-29
[57] = test system: OVCAR-5
[58] = test system: SK-MEL-5
[59] = test system: HCC 2998
[60] = test system: SNB-78
[61] = test system: LXFL 529
[62] = test system: DLD-1
[63] = test system: M19-MEL

Nc1nc(Cl)c(C=O)c(NCC2(CO)CC(CCc3ccccc3)C2)n1 (stereo not drawn)
GI50 [1]: 16.7 µM (inactive) | GI50 [2]: 2.29 µM (inactive) | GI50 [3]: 13.3 µM (inactive) | GI50 [4]: 2.07 µM (inactive) | GI50 [5]: 4.1 µM (inactive) | GI50 [6]: 21 µM (inactive) | GI50 [7]: 2 µM (inactive) | GI50 [8]: 11.3 µM (inactive) | GI50 [9]: 14.8 µM (inactive) | GI50 [10]: 14.5 µM (inactive) | GI50 [11]: 12.4 µM (inactive) | GI50 [12]: 3.08 µM (inactive) | GI50 [13]: 2.95 µM (inactive) | GI50 [14]: 7.85 µM (inactive) | GI50 [15]: 16.2 µM (inactive) | GI50 [16]: 12.6 µM (inactive) | GI50 [17]: 15.2 µM (inactive) | GI50 [18]: 11.7 µM (inactive) | GI50 [19]: 1.74 µM (inactive) | GI50 [20]: 12.4 µM (inactive) | GI50 [21]: 6.43 µM (inactive) | GI50 [22]: 13.6 µM (inactive) | GI50 [23]: 11.3 µM (inactive) | GI50 [24]: 13.7 µM (inactive) | GI50 [25]: 1.48 µM (inactive) | GI50 [26]: 15.4 µM (inactive) | GI50 [27]: 4 µM (inactive) | GI50 [28]: 12.7 µM (inactive) | GI50 [29]: 7.46 µM (inactive) | GI50 [30]: 1.71 µM (inactive) | GI50 [31]: 13.7 µM (inactive) | GI50 [32]: 6.59 µM (inactive) | GI50 [33]: 1.67 µM (inactive) | GI50 [34]: 1.34 µM (inactive) | GI50 [35]: 1.87 µM (inactive) | GI50 [36]: 12.1 µM (inactive) | GI50 [37]: 4.18 µM | GI50 [38]: 1.88 µM (inactive) | GI50 [39]: 22.9 µM (inactive) | GI50 [40]: 13.7 µM (inactive) | GI50 [41]: 5.38 µM (inactive) | GI50 [42]: 14.2 µM (inactive) | GI50 [43]: 14.1 µM (inactive) | GI50 [44]: 11.6 µM (inactive) | GI50 [45]: 9.16 µM (inactive) | GI50 [46]: 12.1 µM (inactive) | GI50 [47]: 1.77 µM (inactive) | GI50 [48]: 3.57 µM (inactive) | GI50 [49]: 6.15 µM (inactive) | GI50 [50]: 18.7 µM (inactive) | GI50 [51]: 2.62 µM (inactive) | GI50 [52]: 3.94 µM (inactive) | GI50 [53]: 2.54 µM (inactive) | GI50 [54]: 5.73 µM (inactive) | GI50 [55]: 1.55 µM (inactive) | GI50 [56]: 12.4 µM (inactive) | GI50 [57]: 15.8 µM (inactive) | GI50 [58]: 8.05 µM (inactive) | GI50 [59]: 1.88 µM (inactive)

CCOC(=O)N1CCC(N[C@@H]2c3cc4c(cc3[C@@H](c3cc(OC)c(O)c(OC)c3)[C@H]3C(=O)OC[C@@H]32)OCO4)CC1
GI50 [1]: 0.0352 µM (active) | GI50 [2]: 0.501 µM (active) | GI50 [3]: 0.597 µM (active) | GI50 [4]: 2.18 µM (inactive) | GI50 [5]: 2.19 µM (inactive) | GI50 [6]: 0.764 µM (active) | GI50 [8]: 0.966 µM (active) | GI50 [10]: 0.853 µM (active) | GI50 [12]: 6.55 µM (inactive) | GI50 [13]: 1.01 µM (active) | GI50 [14]: 0.465 µM (active) | GI50 [60]: 16 µM (inactive) | GI50 [18]: 0.262 µM (active) | GI50 [19]: 2.95 µM (inactive) | GI50 [22]: 1 µM (active) | GI50 [23]: 6.12 µM (inactive) | GI50 [24]: 1.05 µM (active) | GI50 [25]: 1.08 µM (active) | GI50 [26]: 2.73 µM (inactive) | GI50 [27]: 9.29 µM (inactive) | GI50 [28]: 0.289 µM (active) | GI50 [31]: 2.07 µM (inactive) | GI50 [37]: 0.771 µM | GI50 [61]: 6.78 µM (inactive) | GI50 [38]: 2 µM (inactive) | GI50 [40]: 2.7 µM (inactive) | GI50 [41]: 0.771 µM (active) | GI50 [43]: 1.79 µM (inactive) | GI50 [44]: 6 µM (inactive) | GI50 [62]: 6.68 µM (inactive) | GI50 [47]: 0.895 µM (active) | GI50 [48]: 6.03 µM (inactive) | GI50 [50]: 2.18 µM (inactive) | GI50 [52]: 1.97 µM (inactive) | GI50 [53]: 1.5 µM (inactive) | GI50 [55]: 0.647 µM (active) | GI50 [56]: 2.63 µM (inactive) | GI50 [63]: 2.07 µM (inactive) | GI50 [58]: 1.12 µM (active)
